# Experimental data from patent US6414154B1, “Tetraisoquinoline derivatives as modulators of dopamine D3 receptors” (SmithKline Beecham p.l.c., priority 1998, dated 2002).
# Counter-ions that a name gives are not always drawn.
# Target: T1, human D3 dopamine receptors (Homo sapiens, UniProt P35462)
# T1 construct: expressed in transfected cells; host or cells: CHO cells (crude cell membranes)
# Test: displacement of [125I] iodosulpride binding to cloned human D3 dopamine receptors expressed in CHO cells
# Details: 0.1 nM [125I] iodosulpride, CHO cell membranes, 30 min at 37° C.; read-out: pKi at the D3 receptor (converted)
# Method: The inhibition constants (Ki) of test compounds for displacement of [^125I] iodosulpride binding to human D3 dopamine receptors expressed in CHO cells were determined as follows. […] Cultures were grown as monolayers or in suspension in standard cell culture media. Cells were recovered by scraping (from monolayers) or by centrifugation (from suspension cultures), and were washed two or three times by suspension in phosphate buffered saline followed by collection by centrifugation. Cell pellets were stored frozen at −40° C. Crude cell membranes were prepared by homogenisation followed by high-speed centrifugation, and characterisation of cloned receptors achieved by radioligand binding.
# Cell pellets were gently thawed at room temperature, and resuspended in about 20 volumes of ice-cold 50 mM Tris salts (pH 7.4@37° C.), 20 mM EDTA, 0.2 M sucrose. The suspension was homogenised using an Ultra-Turrax at full speed for 15 sec. The homogenate was centrifuged at 18,000 r.p.m for 20 min at 4° C. in a Sorvall RC5C centrifuge. The membrane pellet was resuspended in ice-cold 50 mM Tris salts (pH 7.4@37° C.), using an Ultra-Turrax, and recentrifuged at 18,000 r.p.m for 15 min at 4° C. in a Sorvall RC5C. The membranes were washed two more times with ice-cold 50 mM Tris salts (pH 7.4@37° C.). The final pellet was resuspended in 50 mM Tris salts (pH 7.4@37° C.), and the protein content determined using bovine serum albumin as a standard (Bradford, M. M. (1976) Anal. Biochem. 72, 248-254).
# Crude cell membranes were incubated with 0.1 nM [^125I] iodosulpride (˜2000 Ci/mmol; Amersham, U. K.), and the test compound in a buffer containing 50 mM Tris salts (pH 7.4@37° C.), 120 mM NaCl, 5 mM KCl, 2 mM CaCl2, 1 mM MgCl2, 0.1% (w/v) bovine serum albumin, in a total volume of 1 ml for 30 min at 37° C. Following incubation, samples were filtered using a Brandel Cell Harvester, and washed three times with ice-cold 50 mM Tris salts (pH 7.4@37° C.), 120 mM NaCl, 5 mM KCl, 2 mM CaCl2, 1 mM MgCl2. The radioactivity on the filters was measured using a Cobra gamma counter (Canberra Packard). Non-specific binding was defined as the radioligand binding remaining after incubation in the presence of 100 μM iodosulpride. For competition curves, 14 concentrations (half-log dilutions) of competing cold drug were used. Competition curves were analysed simultaneously whenever possible using non-linear least-squares fitting procedures, capable of fitting one, two or three site models.
# T1 sequence (P35462 whole entry): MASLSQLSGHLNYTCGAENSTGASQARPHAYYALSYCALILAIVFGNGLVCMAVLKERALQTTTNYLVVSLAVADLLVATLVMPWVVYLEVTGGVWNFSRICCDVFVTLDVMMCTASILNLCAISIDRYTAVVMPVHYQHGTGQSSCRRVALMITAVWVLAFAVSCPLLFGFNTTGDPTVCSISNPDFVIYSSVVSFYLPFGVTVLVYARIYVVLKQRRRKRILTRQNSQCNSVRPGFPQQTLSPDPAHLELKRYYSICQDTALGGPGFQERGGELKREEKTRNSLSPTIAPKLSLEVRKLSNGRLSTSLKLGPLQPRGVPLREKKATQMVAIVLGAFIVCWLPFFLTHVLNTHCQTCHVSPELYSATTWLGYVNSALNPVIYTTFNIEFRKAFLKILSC
row,Ki [nM],SMILES
1,3.16 to 12.6,"N#Cc1ccc2c(c1)CCN(CC[C@H]1CC[C@H](NC(=O)Cc3cc4ccccc4o3)CC1)C2 [Example 31, trans-6-Cyano-2-(2-(1-(4-(2-benzofuranyl)acetamido)-cyclohexyl)ethyl)-1,2,3,4-tetrahydroisoquinoline]"
2,3.16 to 12.6,"N#Cc1ccc2c(c1)CCN(CC[C@H]1CC[C@H](NC(=O)Cc3ccc(F)cc3)CC1)C2 [Example 32, trans-6-Cyano-2-(2-(1-(4-(4-fluorophenyl)acetamido)cyclohexyl)ethyl)-1,2,3,4-tetrahydroisoquinoline, Hydrochloride]"
